One may read the IC50 as the midpoint of a concentration-inhibition curve.

Among the data in US9394305B2, “Substituted imidazo[1,2-a]pyridine compounds as tropomyosin receptor kinase a (TrkA) inhibitors” (Dr. Reddy's Laboratories Ltd., priority 2014, dated 2016) are IC50 values, retold here.

In the first test the target is T1, TrkA kinase (Homo sapiens, UniProt P04629).
T1 construct: purchased Upstate, USA
T1 sequence (P04629 33-796): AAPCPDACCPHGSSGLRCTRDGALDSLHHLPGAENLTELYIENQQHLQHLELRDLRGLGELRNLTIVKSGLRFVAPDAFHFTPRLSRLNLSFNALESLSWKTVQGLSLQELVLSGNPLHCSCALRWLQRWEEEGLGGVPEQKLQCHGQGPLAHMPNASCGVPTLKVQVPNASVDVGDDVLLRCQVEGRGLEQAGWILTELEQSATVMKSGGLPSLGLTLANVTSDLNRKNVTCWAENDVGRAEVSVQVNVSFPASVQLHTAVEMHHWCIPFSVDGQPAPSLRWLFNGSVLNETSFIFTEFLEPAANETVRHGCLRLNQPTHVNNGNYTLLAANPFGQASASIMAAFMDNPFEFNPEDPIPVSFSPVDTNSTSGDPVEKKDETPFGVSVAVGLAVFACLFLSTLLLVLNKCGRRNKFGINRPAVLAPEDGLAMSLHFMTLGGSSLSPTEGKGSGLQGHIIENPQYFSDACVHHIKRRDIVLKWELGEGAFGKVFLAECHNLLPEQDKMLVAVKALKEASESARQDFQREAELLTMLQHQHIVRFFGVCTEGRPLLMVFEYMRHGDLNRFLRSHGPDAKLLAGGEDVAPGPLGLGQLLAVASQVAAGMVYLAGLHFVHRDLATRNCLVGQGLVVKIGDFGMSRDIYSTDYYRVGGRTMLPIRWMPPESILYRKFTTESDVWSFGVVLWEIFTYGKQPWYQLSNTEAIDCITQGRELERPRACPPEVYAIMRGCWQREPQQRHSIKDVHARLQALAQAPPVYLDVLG
Kind of test: In vitro TrkA inhibitory activity using TR-FRET assay. The class given is biochemical. As to conditions: 5 ng TrkA, 500 μM ATP, values given as bins, read-out: TrkA inhibition in-vitro IC50. Here is the method:
Compounds were screened in the TR-FRET assay with TrkA kinase. 5 ng of TrkA [Upstate, USA] kinase was used for assay. The compound was incubated with the kinase for 30 minutes at 20-35° C. After the incubation, substrate mix [40 nM Ultra light poly GT (Perkin Elmer, USA) and 500 μM ATP] was added. The above reaction was stopped by the addition of 40 mM EDTA after 30 minutes. The Eu-labelled antiphospho-tyrosine antibody [Perkin Elmer, USA] was added at 0.5 nM and the fluorescence emission at 615 nm/665 nm [excitation at 340 nm] was measured. The compounds were initially screened at 100 nM, 1 μM and 10 μM concentrations. The potent compounds with >25% inhibition at 1 μM of TrkA were taken for the full dose response studies. The final DMSO concentration in the assay was […]. For IC50 determination, ⅓^rd serial dilution was made from the 20 mM DMSO stock solution. 2 μl of these were transferred to the test wells containing 20 μl reaction mixture [Total reaction volume 22 μl]. The fluorescence was measured in Perkin Elmer Wallac 1420 Multilabel Counter Victor 3. The IC50 was determined by fitting the dose response data to a sigmoidal curve fitting equation using GraphPad Prism software version 5.
Turning to `O=C(NS(=O)(=O)N(CC1CC1)c1cccnc1)c1cnc2ccc(N3CCC[C@@H]3c3cc(F)ccc3F)cn12` [Example 44, (R)-N-(N-(cyclopropylmethyl)-N-(pyridin-3-yl)sulfamoyl)-6-(2-(2,5-difluorophenyl)pyrrolidin-1-yl)imidazo[1,2-a]pyridine-3-carboxamide], the IC50 fell in the range of 50 to 100 nM.

Consider `CN(c1cnccn1)S(=O)(=O)NC(=O)c1cnc2ccc(N3CCC[C@@H]3c3cc(F)ccc3F)cn12` [Example 45, (R)-6-(2-(2,5-difluorophenyl)pyrrolidin-1-yl)-N-(N-methyl-N-(pyrazin-2-yl)sulfamoyl)imidazo[1,2-a]pyridine-3-carboxamide], for which the IC50 is ≤ 50 nM.

As to `O=C(NS(=O)(=O)c1ccc(-n2ccnc2)nc1)c1cnc2ccc(N3CCC[C@@H]3c3cc(F)ccc3F)cn12` [Example 46, (R)-N-((6-(1H-imidazol-1-yl)pyridin-3-yl)sulfonyl)-6-(2-(2,5-difluorophenyl)pyrrolidin-1-yl)imidazo[1,2-a]pyridine-3-carboxamide], the IC50 lay within 50 to 100 nM.

Turning to `CN(c1ccccn1)S(=O)(=O)NC(=O)c1cnc2ccc(N3CCC[C@@H]3c3cc(F)ccc3F)cn12` [Example 47, (R)-6-(2-(2,5-difluorophenyl)pyrrolidin-1-yl)-N-(N-methyl-N-(pyridin-2-yl)sulfamoyl)imidazo[1,2-a]pyridine-3-carboxamide], the IC50 is ≤ 50 nM.

As to `CN(c1nccs1)S(=O)(=O)NC(=O)c1cnc2ccc(N3CCC[C@@H]3c3cc(F)ccc3F)cn12` [Example 48, (R)-6-(2-(2,5-difluorophenyl)pyrrolidin-1-yl)-N-(N-methyl-N-(thiazol-2-yl)sulfamoyl)imidazo[1,2-a]pyridine-3-carboxamide], the IC50 is ≤ 50 nM.

Regarding `CC1(S(=O)(=O)NC(=O)c2cnc3ccc(N4CCCC4c4cc(F)cc5c4OCCO5)cn23)CC1` (stereo not drawn) [Example 50, 6-(2-(7-fluoro-2,3-dihydrobenzo[b][1,4]dioxin-5-yl)pyrrolidin-1-yl)-N-((1-methylcyclopropyl)sulfonyl)imidazo[1,2-a]pyridine-3-carboxamide], the IC50 is 100 to 500 nM.

As for `CCCN(C)S(=O)(=O)NC(=O)c1cnc2ccc(N3CCC[C@@H]3c3cc(F)ccc3OC)cn12` [Example 53], the IC50 is 50 to 100 nM.

`CCN(C)S(=O)(=O)NC(=O)c1cnc2ccc(N3CCC[C@@H]3c3cc(F)ccc3OC)cn12` [Example 55, (R)-N-(N-ethyl-N-methylsulfamoyl)-6-(2-(5-fluoro-2-methoxyphenyl)pyrrolidin-1-yl)imidazo[1,2-a]pyridine-3-carboxamide]: the IC50 was ≤ 50 nM.

Take `COc1ccc(F)cc1[C@H]1CCCN1c1ccc2ncc(C(=O)NS(=O)(=O)N(C)CCF)n2c1` [Example 56, (R)-6-(2-(5-fluoro-2-methoxyphenyl)pyrrolidin-1-yl)-N-(N-(2-fluoroethyl)-N-methylsulfamoyl)imidazo[1,2-a]pyridine-3-carboxamide]: the IC50 was ≤ 50 nM.

With `CCN(C)S(=O)(=O)NC(=O)c1cnc2ccc(N3C[C@@H](F)C[C@@H]3c3cc(F)ccc3OCCF)cn12` [Example 57, N-(N-ethyl-N-methylsulfamoyl)-6-((2R,4S)-4-fluoro-2-(5-fluoro-2-(2-fluoroethoxy)phenyl)pyrrolidin-1-yl)imidazo[1,2-a]pyridine-3-carboxamide], the IC50 is ≤ 50 nM.

Still in this test, the particulars now being: 5 ng TrkA, 500 μM ATP, values given as bins, read-out: TrkA inhibitory activity in-vitro IC50.
For `O=C(NS(=O)(=O)c1ccc(N2CC[C@H](O)C2)cc1)c1cnc2ccc(N3CCCCC3c3cc(F)ccc3F)cn12` (stereo partly drawn) [Example 49, 6-(2-(2,5-difluorophenyl)piperidin-1-yl)-N-((4-((S)-3-hydroxypyrrolidin-1-yl)phenyl)sulfonyl)imidazo[1,2-a]pyridine-3-carboxamide], the IC50 fell in the range of 1000 to 10000 nM.

Regarding `O=C(NS(=O)(=O)c1ccc(N2CC[C@H](O)C2)nc1)c1cnc2ccc(N3CCCCC3c3cc(F)ccc3F)cn12` (stereo partly drawn) [Example 51, 6-(2-(2,5-difluorophenyl)piperidin-1-yl)-N-((6-((S)-3-hydroxypyrrolidin-1-yl)pyridin-3-yl)sulfonyl)imidazo[1,2-a]pyridine-3-carboxamide], the IC50 was 1000 to 10000 nM.
